These results are taken from patent publication US20130243867A1, “MICELLE COMPOSITIONS AND METHODS FOR THEIR USE” (University of South Florida (A Florida Non-Profit …, priority 2012, published 2013).

Data set [1] in a line: In vitro DOX release study (dialysis). The data set is classed as physicochemical. Particulars: 96 hours, either pH. The method, then:
An in vitro DOX release study was also performed wherein D-LMNs, M-LMNs, and free DOX were each dispersed in 1 ml PBS buffer containing 1% Tween 20 (pH 7.3 or pH 5.1) and placed in a dialysis membrane (MWCO of 12000-14000 Da), The bag was then immersed in a tube containing 10 mL of the same PBS buffer ([…] or pH 5.1) and incubated at 37° C. At specific time intervals the DOX content in the PBS was analyzed using the UV-VIS spectrophotometer at 485 nm. Samples were all done in triplicate. M-LMNs were used as a blank. The release of the encapsulated DOX from D-LMNs was determined at pH 7.3, which is the physiological pH, and at pH 5.1, which represents the acidic pH inside endosomes, lysosomes, and solid tumors. One percent Tween 20 was used because it forms hydrophobic pockets, which can stabilize the released DOX from the D-LMNs, and helps to avoid aggregation of the hydrophobic DOX in the aqueous environment.

A further data set deals with HEK293 cells. Particulars: cells incubated with free DOX, literature; cited from earlier work.

Structures are written as SMILES.

Take `COc1cccc2c1C(=O)c1c(O)c3c(c(O)c1C2=O)C[C@@](O)(C(=O)CO)C[C@@H]3O[C@H]1C[C@H](N)[C@H](O)[C@H](C)O1.Cl` [free DOX, doxorubicin hydrochloride]: the DOX released entry in data set [1] is listed as “more than 90%”. In addition, in the data set on HEK293 cells, the “location of DOX in cells” value is “found in the nuclei intercalated with DNA”.
